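The compound was tested at five concentrations on cells cultured in 96-well plates, with a 48-hour exposure period. GI50 marks 50% less growth.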 Calls of active or inactive are those of the source. No stated cut-off is given here; in the data, active = GI50 up to about 1.1 µM and inactive = higher.
Legend:
Test in all cases: NCI tumour cell line growth inhibition, 48 h
786-0 = tested on: 786-0
CAKI-1 = tested on: CAKI-1
CCRF-CEM = tested on: CCRF-CEM
SK-MEL-28 = tested on: SK-MEL-28
SF-268 = tested on: SF-268
NCI/ADR-RES = tested on: NCI/ADR-RES
SF-295 = tested on: SF-295
PC-3 = tested on: PC-3
HL-60 = tested on: HL-60
SK-MEL-5 = tested on: SK-MEL-5
OVCAR-3 = tested on: OVCAR-3
NCI-H23 = tested on: NCI-H23
Hs-578T = tested on: Hs-578T
HOP-62 = tested on: HOP-62
RXF 393 = tested on: RXF 393
OVCAR-4 = tested on: OVCAR-4
SK-MEL-2 = tested on: SK-MEL-2
HCT-116 = tested on: HCT-116
U-251 = tested on: U-251
T47D = tested on: T47D
SW-620 = tested on: SW-620
UACC-62 = tested on: UACC-62
MDA-N = tested on: MDA-N
ACHN = tested on: ACHN
OVCAR-5 = tested on: OVCAR-5
HCT-15 = tested on: HCT-15
TK-10 = tested on: TK-10
NCI-H226 = tested on: NCI-H226
OVCAR-8 = tested on: OVCAR-8
NCI-H522 = tested on: NCI-H522
LOX IMVI = tested on: LOX IMVI
SN12C = tested on: SN12C
MOLT-4 = tested on: MOLT-4
DU-145 = tested on: DU-145
MDA-MB-435 = tested on: MDA-MB-435
MCF7 = tested on: MCF7
UACC-257 = tested on: UACC-257
SNB-75 = tested on: SNB-75
RPMI-8226 = tested on: RPMI-8226
UO-31 = tested on: UO-31
HT-29 = tested on: HT-29
KM12 = tested on: KM12
HOP-92 = tested on: HOP-92
NCI-H460 = tested on: NCI-H460
SNB-19 = tested on: SNB-19
IGROV-1 = tested on: IGROV-1
M14 = tested on: M14
HCC 2998 = tested on: HCC 2998
SR = tested on: SR
K562 = tested on: K562
MDA-MB-231 = tested on: MDA-MB-231
SK-OV-3 = tested on: SK-OV-3
Malme-3M = tested on: Malme-3M
A549 = tested on: A549
BT-549 = tested on: BT-549
EKVX = tested on: EKVX
A498 = tested on: A498
SF-539 = tested on: SF-539
COLO 205 = tested on: COLO 205

Measured: GI50

CC(C)(C)c1cc2c(O)c(c1)Cc1cc(C(C#N)(Cc3ccc4ccccc4c3)Cc3ccc4ccccc4c3)cc(c1O)Cc1cc(C(C)(C)C)cc(c1O)Cc1cc(C(C#N)(Cc3ccc4ccccc4c3)Cc3ccc4ccccc4c3)cc(c1O)C2
inactive: 786-0 > 100 µM | CAKI-1 > 100 µM | CCRF-CEM > 100 µM | SK-MEL-28 > 100 µM | SF-268 > 100 µM | NCI/ADR-RES > 100 µM | SF-295 > 100 µM | PC-3 > 100 µM | HL-60 > 100 µM | SK-MEL-5 > 100 µM | OVCAR-3 > 100 µM | NCI-H23 > 100 µM | Hs-578T > 100 µM | HOP-62 > 100 µM | RXF 393 > 100 µM | OVCAR-4 > 100 µM | SK-MEL-2 > 100 µM | HCT-116 > 100 µM | U-251 67 µM | T47D > 100 µM | SW-620 > 100 µM | UACC-62 > 100 µM | MDA-N > 100 µM | ACHN > 100 µM | OVCAR-5 > 100 µM | TK-10 > 100 µM | NCI-H226 > 100 µM | OVCAR-8 > 100 µM | NCI-H522 > 100 µM | LOX IMVI > 100 µM | SN12C > 100 µM | MOLT-4 > 100 µM | DU-145 > 100 µM | MDA-MB-435 > 100 µM | MCF7 > 100 µM | UACC-257 > 100 µM | SNB-75 > 100 µM | RPMI-8226 > 100 µM | UO-31 > 100 µM | HT-29 > 100 µM | KM12 > 100 µM | HOP-92 > 100 µM | NCI-H460 > 100 µM | SNB-19 > 100 µM | IGROV-1 > 100 µM | M14 > 100 µM | HCC 2998 > 100 µM | SR 60.5 µM | K562 > 100 µM | MDA-MB-231 > 100 µM | SK-OV-3 > 100 µM | Malme-3M > 100 µM | A549 > 100 µM | BT-549 > 100 µM | EKVX > 100 µM | A498 > 100 µM | SF-539 > 100 µM | COLO 205 > 100 µM
> 100 µM: HCT-15

COc1ccc2[nH]c3c(C)c4ccnc(NCCCN(C)CCCNc5ccc6ncn7c8ccccc8c(=O)c5c67)c4c(C)c3c2c1
inactive: OVCAR-3 1.87 µM | Hs-578T 3.15 µM | SK-MEL-2 3.24 µM | UACC-62 1.71 µM | OVCAR-5 1.3 µM | SNB-75 1.71 µM | HOP-92 1.68 µM | SK-OV-3 2.29 µM
0.21 µM: HCT-15
active: 786-0 0.0632 µM | CAKI-1 0.242 µM | CCRF-CEM 0.0394 µM | SK-MEL-28 0.671 µM | SF-268 0.352 µM | NCI/ADR-RES 0.664 µM | SF-295 0.34 µM | PC-3 0.752 µM | HL-60 0.08 µM | SK-MEL-5 0.573 µM | NCI-H23 0.412 µM | HOP-62 0.275 µM | RXF 393 0.256 µM | OVCAR-4 0.106 µM | HCT-116 0.0767 µM | U-251 0.134 µM | T47D 0.979 µM | SW-620 0.0418 µM | MDA-N 0.411 µM | ACHN 0.0598 µM | TK-10 0.22 µM | NCI-H226 0.082 µM | OVCAR-8 0.348 µM | NCI-H522 0.0524 µM | LOX IMVI 0.136 µM | SN12C 0.0621 µM | MOLT-4 0.0043 µM | DU-145 0.796 µM | MDA-MB-435 0.713 µM | MCF7 0.142 µM | UACC-257 0.723 µM | RPMI-8226 0.13 µM | UO-31 0.361 µM | HT-29 0.0141 µM | KM12 0.478 µM | NCI-H460 0.0782 µM | SNB-19 0.752 µM | IGROV-1 0.158 µM | M14 0.998 µM | HCC 2998 0.0578 µM | SR 0.0197 µM | K562 0.0632 µM | MDA-MB-231 0.322 µM | Malme-3M 1.07 µM | A549 0.106 µM | BT-549 1.06 µM | EKVX 0.94 µM | A498 1.11 µM | SF-539 0.132 µM | COLO 205 0.272 µM
